Data: patent publication US10172957B2, “Acid-labile lipophilic prodrugs of cancer chemotherapeutic agents” (priority 2011, dated 2019)
Like-named read-outs stand apart in the source and are kept apart here.

Tests used:
[1] = system: SK-N-AS cells (MDR− Neuroblastoma); experiment: MTS proliferation assay using SK-N-AS cells; assay type: cell-based; settings: Homo sapiens, read-out: IC50 in SK-N-AS
Experimental: SK-N-AS cells were plated in appropriate growth medium at 5×10^3 per well in 100 μL in 96 well tissue culture plates, Falcon, one plate for each drug to be tested. Column 1 was blank; it contained medium, but no cells. The plates were incubated overnight at 37° C. in 5% CO2 to allow attachment.
Drug diluted in culture media was added to the cells at a concentration of 0.005 nM to 10 μM, in quadruplicate. After 48-72 hours of drug exposure, the MTS agent was added to all wells and incubated 1-6 hrs (37° C., 5% CO2), depending on cell type, as per CellTiter 96® AQueous Non-Radioactive Cell Proliferation Assay (MTS), Promega. Plates were processed using a Bio-Tek Synergy HT Multi-detection microtiter plate reader at 490 nanometer wavelength and data were processed with KC4V.3 software. Data plots of drug concentration vs. absorbance were plotted and the concentration resulting in 50% inhibition (IC50) was extrapolated for each of the tested compounds.
As summarized in Table 1, the IC50 value for each tested compound in the SK-N-AS cell line was determined. The clinical comparator drug, paclitaxel, was included in the experiment to allow comparison of the results of the candidate compounds to a clinically relevant standard in the taxane class.

CCRF-CEM (CEM) cells = experiment: MTT-based cytotoxicity assay, CEM; assay type: cell-based, human
Source text: (§1) A second evaluation of the cytotoxicity of the acid labile, lipophilic molecular conjugates was undertaken.
(§2) These lines included a uterine sarcoma line, MES-SA, and its doxorubicin-resistant subline, MES-SA/Dx5. See W. G. Harker, F. R MacKintosh, and B. I. Sikic. Development and characterization of a human sarcoma cell line, MES-SA, sensitive to multiple drugs. Cancer Research 43: 4943-4950 (1983); W. G. Harker and B. I. Sikic. Multidrug (pleiotropic) resistance in doxorubicin-selected variants of the human sarcoma cell line MES-SA. Cancer Research 45: 4091 4096 (1985).
(§3) The second set of cells tested, CCRF-CEM or simply CEM, were derived from the blood of a patient with acute lymphoblastic leukemia. G. E. Foley, H. Lazarus, S. Farber, B. G. Uzman, B. A. Boone, and R E. McCarthy. Continuous culture of human lymphoblasts from peripheral blood of a child with acute leukemia. Cancer 18: 522-529 (1965). The subline CEM/VLB100 was developed to be resistant to up to vinblastine at 100 ng/ml. W. T. Beck, T. J. Mueller, and L. R. Tanzer. Altered surface membrane glycoproteins in Vinca alkaloid-resistant human leukemic lymphoblasts. Cancer Research 39: 2070-2076 (1979). Drug resistance is achieved by overexpression of the MDR1 gene. Resistance in the CEM subline designated CEM/VM-1-5, however, is “atypical.” M. K. Danks, J. C. Yalowich, and W. T. Beck. Atypical multiple drug resistance in a human leukemic cell line selected for resistance to teniposide (VM-26). Cancer Research 47: 1297-1301 (1987). The classes of drugs included in the “classic” multiple drug resistance phenotype are Vinca alkaloids, anthracyclines, epipodophyllotoxins and antibiotics. However, CEM/VM-1-5 cells retain sensitivity to the Vinca alkaloids despite resistance and cross-resistance to etoposide, anthracyclines and mitoxantrone. Danks, M. K.; Schmidt, C. A.; Cirtain, M. C.; Suttle, D. P.; Beck, W. T., Altered catalytic activity of and DNA cleavage by DNA topoisomerase II from human leukemic cells selected for resistance to VM-26. Biochemistry 1988, 27, 8861-8869. Resistance in CEM/VM-1-5 cells is effected by over expression of the […]. CEM, CEM/VLB100 and CEM/VM-1-5 cells were obtained from Dr. WT Beck, University of Illinois at Chicago.

[2] = system: MES-SA uterine sarcoma line; experiment: MTT-based cytotoxicity assay, MES-SA; assay type: cell-based, human; settings: read-out: IC50 MESSA (Hs)
Source text: as §1, §2
(§4) MES-SA/Dx5 cells express high levels of ABCB1 (MDR1) mRNA and its gene product, the P-glycoprotein. MES-SA and MES-SA/Dx5 were purchased from the American Type Culture Collection (ATCC, Manassas, Va.).

[3] = system: MES-SA/Dx5 doxorubicin-resistant subline (MDR+); experiment: cells; assay type: cell-based, human; settings: for Degree of resistance (MESSA/Dx5): IC50 of the resistant line divided by IC50 of sensitive MES-SA cells
Source text: as §1, §2, §4

CEM/VLB100 cells (MDR+) = experiment: cells; assay type: cell-based, human; settings: for Degree of resistance (CEM/VLB100): IC50 of the resistant line divided by IC50 of sensitive CEM cells
Source text: as §1, §2, §3

CEM/VM-1-5 cells (MDR+) = experiment: cells; assay type: cell-based, human; settings: for Degree of resistance (CEM/VM-1-5): IC50 of the resistant line divided by IC50 of sensitive CEM cells
Source text: A second evaluation of the cytotoxicity of the acid labile, lipophilic molecular conjugates was undertaken. […]
as §3

[4] = SK-N-AS (MDR− Neuroblastoma), MTS, 48-72 hours drug exposure
[5] = Homo sapiens, read-out: IC50 CEM/VM-1-5 (MDR + HTL), CEM/VM-1-5, MTT

With `CCCCCCCCCCC1(C)OCC(COC(=O)O[C@@H]2C(=O)C=C(C)[C@@H]3C[C@H]4OC(=O)[C@H](OC(=O)CC(O)(C(C)C)C(C)C)[C@H]5[C@@H](C)[C@@H](O)[C@]6(O)OC[C@@]54[C@H]6[C@@]23C)O1` (stereo partly drawn) [ART 332] as the compound, how does the IC50 [1, 4] read?
Its IC50 is 1.1 ± 0.5 nM.

`CC1=CC(=O)[C@@H](OC(CBr)OC(C)(C)C)[C@]2(C)C3[C@]45CO[C@@]3(O)[C@H](O)[C@H](C)C4C(OC(=O)CC(O)(C(C)C)C(C)C)C(=O)O[C@@H]5C[C@@H]12` (stereo partly drawn) [ART 471] was tested. Which IC50 [1, 4] did it give?
Its IC50 is 262 ± 12 nM.

For doxorubicin [reference compound], which IC50 (CCRF-CEM (CEM) cells; CEM human T-lymphoblastoid, MTT, read-out: IC50 CEM (HTL)) is on record?
Its IC50 is 14 nM.

What about the IC50 ([2]; MES-SA human sarcoma, MTT) of the same compound?
The IC50 was 2 nM.

What about the “Degree of resistance (MESSA/Dx5)” value [3] of the same compound?
Its value is 49.

What about the IC50 ([3]; MES-SA/Dx5, MTT, read-out: IC50 MESSA/Dx5 (MDR + Hs)) of the same compound?
Its IC50 is 97 nM.

What about the IC50 (CEM/VLB100 cells (MDR+); CEM/VLB100, MTT, read-out: IC50 CEM/VLB100 (MDR + HTL)) of the same compound?
The IC50 was 2100 nM.

What about the “Degree of resistance (CEM/VLB100)” value (CEM/VLB100 cells (MDR+)) of the same compound?
Its value is 150.

What about the IC50 (CEM/VM-1-5 cells (MDR+); CEM/VM-1-5, MTT, read-out: IC50 CEM/VM-1-5 (MDR + HTL)) of the same compound?
The IC50 was 3060 nM.

What about the “Degree of resistance (CEM/VM-1-5)” value (CEM/VM-1-5 cells (MDR+)) of the same compound?
The value was 219.

`CC[C@]1(O)C[C@@H]2CN(CCc3c([nH]c4ccccc34)[C@@](C(=O)OC)(c3cc4c(cc3OC)N(C)[C@H]3[C@@](O)(C(=O)OC)[C@H](OC(C)=O)[C@]5(CC)C=CCN6CC[C@]43[C@@H]65)C2)C1` [Vinblastine, vinblastine, reference compound] was tested. Which IC50 (CCRF-CEM (CEM) cells; Homo sapiens, CCRF-CEM, read-out: IC50 CEM (HTL), CEM human T-lymphoblastoid, MTT) did it give?
The IC50 was 1 ± 0.8 nM.

And the IC50 ([2]; Homo sapiens, MES-SA)?
Its IC50 is 1.1 ± 0.3 nM.

What about the IC50 ([3]; Homo sapiens, MES-SA/Dx5, read-out: IC50 MESSA/Dx5 (MDR + Hs)) of the same compound?
Its IC50 is 43 ± 12 nM.

And the “Degree of resistance (MESSA/Dx5)” value [3]?
Its value is 38.5 ± 0.7.

What about the “Degree of resistance (CEM/VLB100)” value (CEM/VLB100 cells (MDR+)) of the same compound?
The value was 255 ± 127.

What about the IC50 (CEM/VM-1-5 cells (MDR+); [5]) of the same compound?
Its IC50 is 1.3 ± 0.9 nM.

What about the “Degree of resistance (CEM/VM-1-5)” value (CEM/VM-1-5 cells (MDR+)) of the same compound?
Its value is 1.2 ± 0.07.

`CC(=O)O[C@H]1C(=O)[C@@]2(C)[C@H]([C@H](OC(=O)c3ccccc3)[C@]3(O)C[C@H](OC(=O)[C@H](O)[C@@H](NC(=O)c4ccccc4)c4ccccc4)C(C)=C1C3(C)C)[C@]1(OC(C)=O)CO[C@@H]1C[C@@H]2O` [Paclitaxel, paclitaxel, reference compound] was tested. Which IC50 ([2]; Homo sapiens, MES-SA) did it give?
The IC50 was 9 ± 7 nM.

And the “Degree of resistance (MESSA/Dx5)” value [3]?
The value was 3105 ± 2416.

What about the IC50 ([1]; SK-N-AS) of the same compound?
Its IC50 is 0.05 ± 0.01 nM.

And the IC50 (CEM/VM-1-5 cells (MDR+); [5])?
Its IC50 is < 11 nM.

And the “Degree of resistance (CEM/VM-1-5)” value (CEM/VM-1-5 cells (MDR+))?
The value was 4.

For `CC1=CC(=O)[C@@H](OC(CBr)OC2CCCCC2)[C@]2(C)C3[C@]45CO[C@@]3(O)[C@H](O)[C@H](C)C4C(OC(=O)CC(O)(C(C)C)C(C)C)C(=O)O[C@@H]5C[C@@H]12` (stereo partly drawn) [ART 473], which IC50 [1, 4] is on record?
Its IC50 is 12.6 ± 0.9 nM.

With `C=CCCCCOC(=O)O[C@@H]1C(=O)C=C(C)[C@@H]2C[C@H]3OC(=O)C(OC(=O)CC(O)(C(C)C)C(C)C)C4[C@@H](C)[C@@H](O)[C@]5(O)OC[C@@]43C5[C@@]12C` (stereo partly drawn) [ART 448] as the compound, how does the IC50 [1, 4] read?
Its IC50 is 5 ± 0.7 nM.

How did the IC50 [1, 4] turn out when `CC/C=C\C/C=C\C/C=C\C/C=C\C/C=C\C/C=C\CCCOC(=O)O[C@@H]1C(=O)C=C(C)[C@@H]2C[C@H]3OC(=O)C(OC(=O)CC(O)(C(C)C)C(C)C)C4[C@@H](C)[C@@H](O)[C@]5(O)OC[C@@]43C5[C@@]12C` (stereo partly drawn) [ART 449] was run?
Its IC50 is 4 ± 0.5 nM.

`CCOC(CBr)O[C@@H]1C(=O)C=C(C)[C@@H]2C[C@H]3OC(=O)C(OC(=O)CC(O)(C(C)C)C(C)C)C4[C@@H](C)[C@@H](O)[C@]5(O)OC[C@@]43C5[C@@]12C` (stereo partly drawn) [ART 470] was tested. Which IC50 [1, 4] did it give?
The IC50 was 349 ± 15 nM.

Which IC50 [1, 4] does the source give for `CCCCCCCCCCCCCCCCCCOC(CBr)O[C@@H]1C(=O)C=C(C)[C@@H]2C[C@H]3OC(=O)C(OC(=O)CC(O)(C(C)C)C(C)C)C4[C@@H](C)[C@@H](O)[C@]5(O)OC[C@@]43C5[C@@]12C` (stereo partly drawn) [ART 472] here?
The IC50 was 1.19 ± 0.5 nM.
